This note sets out measurements from patent US9458113B2 (Boehringer Ingelheim International GmbH, priority 2014, dated 2016).

pEC50, pIC50: −log10 of the molar value.

Series [1] concerns the target Human neutrophil elastase (Homo sapiens (Human), UniProt P08246). Nature of the series: Human Neutrophil Elastase Assay. The class given is biochemical. The settings on record: substrate MeOSuc-Ala-Ala-Pro-Val-AMC 250 μM, pH 7.5.
Description: The following buffers were used: Compound buffer: 100 mM Tris, 500 mM NaCl, adjusted to pH 7.5; Assay buffer: 100 mM Tris, 500 mM NaCl, adjusted to pH 7.5, containing 0.01% BSA.
Assay conditions: Test compounds were prediluted in DMSO and subsequently in compound buffer (5% DMSO final). […] After inactivation of the enzyme, fluorescence intensities were measured at 380 nm excitation and 460 nm emission wavelengths.
Each plate contains wells with a high value control (DMSO+enzyme+substrate) and wells with a low value control (DMSO+inactivated enzyme+substrate). IC50 values were estimated using a sigmoidal concentration response curve with variable slope. Means of low values were taken as 0%, means of high values as 100%.
Series [2] concerns the target neutrophil elastase in zymosan-stimulated human plasma (Homo sapiens (Human), UniProt P08246). In words: Neutrophil elastase inhibitory activity in human plasma. The class given is biochemical. Particulars: human plasma from zymosan-stimulated blood.
Description: Assay for the Determination of Neutrophil Elastase Inhibitory Activity in Human Plasma
Citrated blood from human healthy donors is mixed with zymosan suspension and incubated at room temperature. This leads to the stimulation of neutrophils and the release of neutrophil elastase into the plasma. The stimulated blood is centrifuged to generate the neutrophil elastase enriched plasma.
Various concentrations of the neutrophil elastase inhibitor are incubated with plasma. […] A dose response curve is generated to calculate the EC50 of the inhibitor.
The nature of series [3]: Metabolic stability with human liver microsomes. The class given is in vitro ADME. Particulars: pH 7.6; pooled human liver microsomes, 1 μM test compound, 37° C.; read-out: t1/2 INVITRO.
A further series relates to human hepatocytes. Nature of the series: Metabolic stability with human hepatocytes. Particulars: 1 μM test compound, well stirred model. It counts as in vitro ADME. As to the method: Assay for the Determination of Metabolic Stability with Human Hepatocytes
The metabolic degradation of the test compound is assayed in a human hepatocyte suspension. Human hepatocytes (typically cryopreserved) are incubated in an appropriate buffer system (e.g. Dulbecco's modified eagle medium plus 3.5 μg glucagon/500 mL, 2.5 mg insulin/500 mL and 3.75 mg/500 mL hydrocortison) containing 5% species serum. Following a (typically) […] preincubation in an incubator (37° C., 10% CO2), 5 μl of test compound solution (80 μM; from […] stock solution in DMSO diluted 1:25 with medium) are added into 395 μl hepatocyte suspension (cell density in the range 0.25-5*10^6 cells/mL, typically 1*10^6 cells/mL; final concentration of test compound 1 μM, final DMSO concentration 0.05%). The cells are incubated for six hours (incubator, orbital shaker) and samples (25 μl) are taken at 0, 0.5, 1, 2, 4 and 6 hours. Samples are transferred into acetonitrile and pelleted by centrifugation (5 min) The supernatant is transferred to a new 96-deepwell plate, evaporated under nitrogen and resuspended. The decline of parent compound is analyzed by LC-MS/MS.
The intrinsic clearance CL_[…] is calculated as follows: CL_[…]=Dose/AUC=(C0/CD)/(AUD+clast/k)*1,000/60
(C0: initial concentration in the incubation [μM], CD: cell density of vital cells [10^6 cells/mL], AUD: area under the data [μM*h], clast: concentration of last data point [μM], k: slope of the regression line for parent decline [h^−1])
The calculated in vitro hepatic intrinsic clearance Qh can be scaled up to the intrinsic in vivo hepatic clearance and used to predict hepatic in vivo blood clearance (CL) by the use of a liver model (well stirred model): CL_[…]_INVIVO [ml/min/kg]=(CL_[…] [μL/min/10^6 cells]*hepatocellularity [10^6 cells/g liver]*liver factor [g/kg bodyweight])/1,000 CL [ml/min/kg]=CL_[…]_INVIVO [ml/min/kg]*hepatic blood flow [ml/min/kg]/(CL_[…]_INVIVO [ml/min/kg]+hepatic blood flow [ml/min/kg]) Qh [%]=CL [ml/min/kg]/hepatic blood flow [ml/min/kg])
(Hepatocellularity, human: 120*10^6 cells/g liver; liver factor, human: 25.7 g/kg bodyweight; blood flow, human: 21 ml/(min*kg))
The calculated in-vitro hepatic intrinsic clearance values of selected compounds in the metabolic stability assay with human hepatocytes described above are listed in Table 15.

Series [4] is described as follows: Drug transport across human Caco-2 cells. It counts as in vitro ADME. The settings on record: apparent permeability coefficient, Caco-2 monolayers, pH 7.2, 37° C.; for Papp A→B at 10 µM: apical-to-basal (absorptive), read-out: PEAB; for Papp B→A at 10 µM: basal-to-apical (secretory), read-out: PEBA. The source says:
Assay for Determination of Drug Transport Across Human Caco-2 Cells
The assay provides information on the potential of a compound to pass the cell membrane, on the extent of oral absorption as well as on whether the compound is actively transported by uptake and/or efflux transporters. For the measurement of permeability across polarized, confluent human cancer colon carcinoma cells 2 (Caco-2) cell monolayers grown on permeable filter supports are used as the in vitro absorption model.
Apparent permeability coefficients (PE) of the compounds across the Caco-2 monolayers are measured (pH 7.2, 37° C.) in apical-to-basal (AB) (absorptive) and basal-to-apical (BA) (secretory) transport direction. AB permeability (PEAB) represents drug absorption from the intestine into the blood and BA permeability (PEBA) drug secretion from the blood back into the intestine via both passive permeability as well as active transport mechanisms mediated by efflux and uptake transporters that are expressed on the Caco-2 cells. The compounds are assigned to permeability/absorption classes by comparison of the AB permeabilities with the AB permeabilities of reference compounds with known in vitro permeability and oral absorption in the human. Identical or similar permeabilities in both transport directions indicate passive permeation, vectorial permeability points to additional active transport mechanisms. […] Active transport is concentration-dependently saturable.
Caco-2 cells (1-2*10^5 cells/cm^2 area) are seeded on filter inserts (Costar transwell polycarbonate or PET filters, 0.4 μm pore size) and cultured (DMEM) for 10 to 25 days. Compounds are dissolved in appropriate solvent (like DMSO, […] stock solutions). Stock solutions are diluted with HTP-4 buffer (128.13 mM NaCl, 5.36 mM KCl, 1 mM MgSO4, 1.8 mM CaCl2, 4.17 mM NaHCO3, 1.19 mM Na2HPO4x7H2O, 0.41 mM NaH2PO4xH2O, 15 mM HEPES, 20 mM glucose, pH 7.2) to prepare the transport solutions (typically 10 μM compound, final DMSO<=0.5%). The transport solution (TL) is applied to the apical or basolateral donor side for measuring A-B or B-A permeability (3 filter replicates), respectively. The receiver side contains HTP-4 buffer supplemented with 2% BSA. Samples are collected at the start and end of experiment from the donor and at various time intervals for up to 2 hours also from the receiver side for concentration measurement by LC-MS/MS or scintillation counting. Sampled receiver volumes are replaced with fresh receiver solution.
The apparent permeability coefficients (PEAB and PEBA) of selected compounds in the Caco-2 drug transport assay described above are listed in Table 16.

neutrophil elastase in zymosan-stimulated human plasma, sequence (P08246 30-247): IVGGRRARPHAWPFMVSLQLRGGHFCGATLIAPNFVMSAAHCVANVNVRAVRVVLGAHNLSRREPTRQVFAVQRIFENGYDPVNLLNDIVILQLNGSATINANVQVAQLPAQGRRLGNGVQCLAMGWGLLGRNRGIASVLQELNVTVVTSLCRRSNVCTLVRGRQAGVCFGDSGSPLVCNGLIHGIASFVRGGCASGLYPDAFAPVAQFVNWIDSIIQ
Human neutrophil elastase, sequence (P08246 30-247): as above

Take `CN1C(=O)N(c2cccc(C(F)(F)F)c2)C2=C(C(=O)CC2)C1c1ccc(C#N)cc1-c1cnn(C)c1` (stereo not drawn) [Example 11.2]: the negative-log IC50 (pIC50) in series [1] is above 9.00. The same molecule showed a negative logarithm of the EC50 (pEC50) in series [2] of 8.70. Besides, in series [3], the half-life at 1 μM stood at 2 h. This molecule had a Qh in the series on human hepatocytes of 24%. Also, in series [4], the Papp A→B at 10 µM came to 61 ×10⁻⁶ cm/s and the Papp B→A at 10 µM came out at 76 ×10⁻⁶ cm/s.
The molecule `CNC(=O)c1cc(C#N)ccc1[C@@H]1C2=C(CCC2=O)N(c2cccc(C(F)(F)F)c2)C(=O)N1C` [Example 2.1] had a negative-log IC50 (pIC50) in series [1] of 8.74. In series [2], this molecule showed a pEC50 of 8.70. Further, in series [3], the half-life at 1 μM was above 2.17 h. For the same molecule, the Qh in the series with human hepatocytes is 9%. Further, in series [4], the Papp A→B at 10 µM stood at 14 ×10⁻⁶ cm/s and the Papp B→A at 10 µM was 78 ×10⁻⁶ cm/s.
`CN1C(=O)N(c2cccc(C(F)(F)F)c2)C2=C(C(=O)CCC2)C1c1ccc(C#N)cc1-c1ccn(C)c(=O)c1` (stereo not drawn) [Example 15.8, 4-[3-Methyl-2,5-dioxo-1-(3-trifluoromethyl-phenyl)-1,2,3,4,5,6,7,8-octahydro-quinazolin-4-yl]-3-(1-methyl-2-oxo-1,2-dihydro-pyridin-4-yl)-benzonitrile] showed a negative-log IC50 (pIC50) in series [1] of 8.92. In series [2], this molecule gave a pEC50 of 8.40. In addition, in series [3], the half-life at 1 μM was above 2.17 h. In addition, in series [4], the Papp A→B at 10 µM worked out at 3.5 ×10⁻⁶ cm/s and the Papp B→A at 10 µM turned out to be 57 ×10⁻⁶ cm/s.
On to `Cc1nnc(-c2cc(C#N)ccc2C2C3=C(CCC3=O)N(c3cccc(C(F)(F)F)c3)C(=O)N2C)o1` (stereo not drawn) [Example 13.1, 4-[3-Methyl-2,5-dioxo-1-(3-trifluoromethyl-phenyl)-2,3,4,5,6,7-hexahydro-1H-cyclopentapyrimidin-4-yl]-3-(5-methyl-[1,3,4]oxadiazol-2-yl)-benzonitrile], for which the pIC50 in series [1] is 8.66. For the same molecule, the negative logarithm of the EC50 (pEC50) in series [2] was 8.70. Besides, in series [3], the half-life at 1 μM is above 2.17 h. This molecule gave a Qh with human hepatocytes of 16%. Besides, in series [4], the Papp A→B at 10 µM came out at 49 ×10⁻⁶ cm/s and the Papp B→A at 10 µM was found to be 72 ×10⁻⁶ cm/s.
`CN1C(=O)N(c2cccc(C(F)(F)F)c2)C2=C(C(=O)CCC2)C1c1ccc(C#N)cc1-c1ccn(C)c(=O)c1` (single isomer, unassigned) [Example 20.b, 4-[3-Methyl-2,5-dioxo-1-(3-trifluoromethyl-phenyl)-1,2,3,4,5,6,7,8-octahydro-quinazolin-4-yl]-3-(1-methyl-2-oxo-1,2-dihydro-pyridin-4-yl)-benzonitrile]: the Qh in the series on human hepatocytes was 5%. In addition, in series [4], the Papp A→B at 10 µM worked out at 6.2 ×10⁻⁶ cm/s and the Papp B→A at 10 µM was determined as 95 ×10⁻⁶ cm/s.
`CN1C(=O)N(c2cccc(C(F)(F)F)c2)C2=C(C(=O)CC2)C1c1ccc(C#N)cc1C(=O)NCc1cnco1` (stereo not drawn) [Example 1.40]: in series [1], the negative-log IC50 (pIC50) was 9.00.
On the same count and under the same terms, with `CN(Cc1cncn1C)C(=O)c1cc(C#N)ccc1C1C2=C(CCC2=O)N(c2cccc(C(F)(F)F)c2)C(=O)N1C` (stereo not drawn) [Example 1.72] the figure was above 9.00; with `CC(C)N1CCN(C(=O)c2cc(C#N)ccc2C2C3=C(CCC3=O)N(c3cccc(C(F)(F)F)c3)C(=O)N2C)CC1` (stereo not drawn) [Example 3.4], 8.14; with `CN1C(=O)N(c2cccc(C(F)(F)F)c2)C2=C(C(=O)CC2)C1c1ccc(C#N)cc1C(=O)NCCCO` (stereo not drawn) [Example 1.15], 8.30.
Same read-out and setting: with `CN(C)C(=O)c1cc(C#N)ccc1C1C2=C(CCC2=O)N(c2cccc(C(F)(F)F)c2)C(=O)N1C` (stereo not drawn) [Example 1.3] the figure was 8.27; with `CN1C(=O)N(c2cccc(C(F)(F)F)c2)C2=C(C(=O)CC2)C1c1ccc(C#N)cc1C(=O)NCc1ccnnc1` (stereo not drawn) [Example 1.49], 8.30; with `CN1C(=O)N(c2cccc(C(F)(F)F)c2)C2=C(C(=O)CC2)C1c1ccc(C#N)cc1C(=O)NCc1ccccn1` (stereo not drawn) [Example 1.47], 8.38.
